Consider 7 substances from patent publication US20020122795A1, “Compositions containing gangliosides for use in the treatment of skin disorders” (priority 2000, published 2002).

Assay [1] relates to adhesion to vitronectin. The experiment in a line: Adhesion to vitronectin. The class given is cell-based. The text has this:
(§1) The ganglioside specifically interacts through carbohydrate moieties, with preference for the a5 subunit of the a5b1. […] Although any interaction between ganglioside and integrin b1 is much weaker, GT1b is able to bind b1 and, by doing so, inhibits b1 phosphorylation and serine/threonine phosphorylation.

Assay [2] has as its target Integrin avb3 (Homo sapiens, UniProt P05106+P06756). Nature of the assay: Binding of ganglioside to integrin avb3.
Assay [3] deals with keratinocytes and keratinocyte-derived cells. Nature of the assay: Adhesion of keratinocytes and keratinocyte-derived cells to fibronectin. Particulars: fibronectin substrate. The class given is cell-based. From the text:
(§2) Keratinocyte motility on a fibronectin substrate is critical in the reepithelialization of healing wounds, and in the spread of cutaneous malignancy. We discovered that gangliosides GT1b and GD3 inhibit the adhesion to and migration of keratinocytes and keratinocyte-derived cells on fibronectin (See, Paller, A. S., et al., J. Invest. Dermatol., 105:237-242 (1995); Sung, C-C., et al., Exp. Cell Res., 239:311-319 (1998); Wang, X-Q, et al., J. Biol. Chem., 276(48):44504-44511 (2001) each incorporated by reference). Conversely, endogenous depletion of gangliosides through sialidase gene modulation leads to increased adhesion of the cells to fibronectin and vitronection. Gangliosides also trigger the apoptosis of keratinocytes when plated on a fibronectin matrix.

Assay [4] concerns integrin-linked kinase. Nature of the assay: Phosphorylation of integrin-linked kinase. The class given is cell-based.
From the text: as §1

The target of assay [5] is T1, keratinocyte a5b1 (Homo sapiens, UniProt P05556+P08648).
T1 construct: endogenous in cells; host or cells: keratinocytes
T1 sequence (P08648 42-894 limits assumed): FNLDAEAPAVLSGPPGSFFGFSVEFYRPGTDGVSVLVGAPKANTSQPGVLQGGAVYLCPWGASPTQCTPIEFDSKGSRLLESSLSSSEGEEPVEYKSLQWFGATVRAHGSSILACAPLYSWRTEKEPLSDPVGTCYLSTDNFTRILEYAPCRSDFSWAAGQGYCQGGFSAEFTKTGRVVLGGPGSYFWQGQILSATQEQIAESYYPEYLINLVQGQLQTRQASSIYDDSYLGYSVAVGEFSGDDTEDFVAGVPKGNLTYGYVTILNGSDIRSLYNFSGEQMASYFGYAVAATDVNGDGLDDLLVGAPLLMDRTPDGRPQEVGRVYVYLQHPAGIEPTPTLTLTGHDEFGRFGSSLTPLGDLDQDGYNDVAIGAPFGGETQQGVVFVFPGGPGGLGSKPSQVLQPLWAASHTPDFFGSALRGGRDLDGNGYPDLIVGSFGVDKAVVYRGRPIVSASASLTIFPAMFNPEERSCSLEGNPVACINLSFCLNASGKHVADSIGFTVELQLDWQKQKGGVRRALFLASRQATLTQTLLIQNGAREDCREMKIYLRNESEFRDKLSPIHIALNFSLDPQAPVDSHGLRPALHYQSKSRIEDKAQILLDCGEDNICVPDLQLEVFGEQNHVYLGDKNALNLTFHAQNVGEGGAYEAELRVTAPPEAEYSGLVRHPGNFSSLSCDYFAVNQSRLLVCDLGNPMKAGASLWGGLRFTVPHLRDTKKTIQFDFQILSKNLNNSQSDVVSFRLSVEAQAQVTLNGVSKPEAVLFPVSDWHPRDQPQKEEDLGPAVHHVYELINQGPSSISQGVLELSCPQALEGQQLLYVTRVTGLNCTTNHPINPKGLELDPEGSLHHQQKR
T1 sequence (P08648 895-1049 limits assumed): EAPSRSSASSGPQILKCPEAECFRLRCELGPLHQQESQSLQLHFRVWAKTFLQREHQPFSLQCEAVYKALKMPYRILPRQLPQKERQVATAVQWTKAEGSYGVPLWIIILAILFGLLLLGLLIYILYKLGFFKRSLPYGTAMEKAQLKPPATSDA
T1 sequence (P05556 21-798): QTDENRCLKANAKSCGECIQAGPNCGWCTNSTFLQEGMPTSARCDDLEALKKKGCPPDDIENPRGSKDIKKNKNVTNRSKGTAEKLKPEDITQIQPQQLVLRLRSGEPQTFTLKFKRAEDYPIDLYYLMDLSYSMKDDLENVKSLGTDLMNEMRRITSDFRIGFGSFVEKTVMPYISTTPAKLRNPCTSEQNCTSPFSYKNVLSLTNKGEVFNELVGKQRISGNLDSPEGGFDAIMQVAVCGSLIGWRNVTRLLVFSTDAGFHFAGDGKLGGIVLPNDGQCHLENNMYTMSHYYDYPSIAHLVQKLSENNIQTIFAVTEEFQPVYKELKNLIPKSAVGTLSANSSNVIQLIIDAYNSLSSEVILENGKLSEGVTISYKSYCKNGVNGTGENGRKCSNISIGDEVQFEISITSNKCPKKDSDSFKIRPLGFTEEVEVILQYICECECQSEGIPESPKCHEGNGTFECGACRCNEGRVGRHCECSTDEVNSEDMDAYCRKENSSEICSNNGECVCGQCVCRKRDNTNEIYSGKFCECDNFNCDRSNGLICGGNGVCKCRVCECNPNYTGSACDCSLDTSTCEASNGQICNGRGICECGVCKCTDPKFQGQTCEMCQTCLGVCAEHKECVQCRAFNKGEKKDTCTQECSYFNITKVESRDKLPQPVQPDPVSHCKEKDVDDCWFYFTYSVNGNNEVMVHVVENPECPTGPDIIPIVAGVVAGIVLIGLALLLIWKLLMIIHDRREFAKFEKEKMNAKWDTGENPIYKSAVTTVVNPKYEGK
The experiment in a line: Direct interaction of ganglioside with keratinocyte a5b1. The class given is binding. Particulars: through carbohydrate moieties.
From the text: as §1

Assay [6] relates to FAK. Nature of the assay: Phosphorylation of FAK. The class given is cell-based.
From the text: as §1

In assay [7] the test system is MMP-2. The experiment in a line: MMP-2 expression and activity in keratinocyte-derived SCC12 cells. The class given is cell-based. As to the method: (§3) In contrast, inhibitors of protein kinase C (PKC) decrease the expression of TIMP-1 in SCC12 cells without altering MMP-9 expression. […] When both activators of PKC and gangliosides GT1b or GD3 are incubated together with the SCC12 cells, no change in the expression or activity of MMP-2 is noted. These studies provide evidence that more highly sialylated gangliosides modulate MMP-2 expression and activity in keratinocytes through a mechanism that involves suppression of the PKC signaling pathway.

Assay [8] relates to keratinocytes and keratinocyte-derived cells. The experiment in a line: Migration of keratinocytes and keratinocyte-derived cells on fibronectin. The class given is cell-based. Particulars: fibronectin substrate.
From the text: as §2

The test system of assay [9] is TIMP-1. The experiment in a line: TIMP-1 expression in keratinocyte-derived cells. The class given is cell-based. The protocol: as §3
The test system of assay [10] is skin cells. Nature of the assay: Proliferation of skin cells. The class given is cell-based. From the text: One manifestation of basal cell and squamous cell cancers of the skin, psoriasis, and genetic disorders of skin overgrowth, such as certain forms of ichthyosis, is excessive proliferation of skin. In our experiments, we have noted that alterations in ganglioside content, whether by pharmacologic manipulation or endogenous alteration through gene therapy, also affect the growth of skin cells. […] We have now determined that a decrease in the same gangliosides would increase the proliferation of skin cells; in fact, we have determined that transfection of a sialidase gene that cleaves the sialic acid group(s) from all gangliosides results in total ganglioside depletion, and leads to increased proliferation of skin cells. […] We believe that a number of other gangliosides have similar effects, as described below, and could be used in therapeutic treatments.

The target in assay [11] is T2, epidermal growth factor receptor (Homo sapiens, UniProt P00533).
T2 construct: epidermal growth factor receptor in keratinocytes; endogenous in cells; host or cells: keratinocytes
Nature of the assay: Direct binding of ganglioside to the epidermal growth factor receptor in keratinocytes. The text has this:
(§4) The mechanism for the overgrowth of skin cells depleted of gangliosides and for the inhibition of growth of skin cells with increased ganglioside GM3 is decreased availability of the epidermal growth factor receptor for binding to its ligands (epidermal growth factor and transforming growth factor-α). […] Also affected are downstream components in the epidermal growth factor signaling transduction pathway, e.g. GM3 downregulates the phosphorylation of MAP kinase and PI3 kinase.

The subject of assay [12] is MAP kinase. Nature of the assay: Phosphorylation of MAP kinase (EGF signalling pathway). The class given is cell-based.
From the text: as §4

For assay [13], the system named is MMP-9. The experiment in a line: MMP-9 expression and activity in keratinocyte-derived cells. The class given is cell-based. The protocol: as §3
Assay [14] deals with PI3 kinase. The experiment in a line: Phosphorylation of PI3 kinase (EGF signalling pathway). The class given is cell-based.
From the text: as §4

The target in assay [15] is T3, integrin b1 (Homo sapiens, UniProt P05556). The experiment in a line: Binding of ganglioside to integrin b1.
T3 sequence (P05556 21-798): as above
T3 sequence (P08648 42-894 partner limits assumed): as the sequence (P08648 42-894 limits assumed) above
T3 sequence (P08648 895-1049 partner limits assumed): as the sequence (P08648 895-1049 limits assumed) above
From the text: as §1

The subject of assay [16] is explant cultures from patients with psoriasis. Nature of the assay: Attachment of explant cultures from patients with psoriasis. The class given is cell-based. From the text:
The interaction of a5b1 and fibronectin is considered critical for embryonic development of skin, healing of wounds and spread of cutaneous malignancies. In addition, it is known in the art that cells from patients with psoriasis have shown increased adherence to fibronectin and a decreased ability to undergo apoptosis. […] Integrin avb3 plays a vital role in the development and proliferation of blood vessels in skin; increased activity leads to neovascularization, while inhibition can inhibit new vessel formation. Thus, an increase in more complex skin gangliosides, particularly GT1b, may be novel agents for treating psoriasis or in inhibiting vascular-dependent processes, such as the rapid growth of hemangiomas in infants. In contrast, depletion of gangliosides (e.g., through increased local sialidase activity) may encourage wound healing, through increasing the migration of keratinocytes, increasing keratinocyte proliferation, and encouraging angiogenesis. Thus, the invention includes administering gangliosides including but not limited to GT1b and GD3, and other agents that affect the amount and action of these gangliosides, to control fibronectin interactions.

The target of assay [17] is T3, integrin b1. Nature of the assay: Phosphorylation of integrin b1. The class given is cell-based.
From the text: as §1

Assay [18] has as its system TIMP-2. The experiment in a line: TIMP-2 expression in keratinocyte-derived SCC12 cells. The class given is cell-based. As to the method:
as §3

Setting [19] is: ganglioside incubated together with activators of PKC, SCC12 cells.
[20] abbreviates: keratinocyte-derived SCC12 cells.
[21] abbreviates: pharmacologic addition to normal keratinocyte-derived cells.

Chain of Integrin avb3 (P06756 31-889 limits assumed): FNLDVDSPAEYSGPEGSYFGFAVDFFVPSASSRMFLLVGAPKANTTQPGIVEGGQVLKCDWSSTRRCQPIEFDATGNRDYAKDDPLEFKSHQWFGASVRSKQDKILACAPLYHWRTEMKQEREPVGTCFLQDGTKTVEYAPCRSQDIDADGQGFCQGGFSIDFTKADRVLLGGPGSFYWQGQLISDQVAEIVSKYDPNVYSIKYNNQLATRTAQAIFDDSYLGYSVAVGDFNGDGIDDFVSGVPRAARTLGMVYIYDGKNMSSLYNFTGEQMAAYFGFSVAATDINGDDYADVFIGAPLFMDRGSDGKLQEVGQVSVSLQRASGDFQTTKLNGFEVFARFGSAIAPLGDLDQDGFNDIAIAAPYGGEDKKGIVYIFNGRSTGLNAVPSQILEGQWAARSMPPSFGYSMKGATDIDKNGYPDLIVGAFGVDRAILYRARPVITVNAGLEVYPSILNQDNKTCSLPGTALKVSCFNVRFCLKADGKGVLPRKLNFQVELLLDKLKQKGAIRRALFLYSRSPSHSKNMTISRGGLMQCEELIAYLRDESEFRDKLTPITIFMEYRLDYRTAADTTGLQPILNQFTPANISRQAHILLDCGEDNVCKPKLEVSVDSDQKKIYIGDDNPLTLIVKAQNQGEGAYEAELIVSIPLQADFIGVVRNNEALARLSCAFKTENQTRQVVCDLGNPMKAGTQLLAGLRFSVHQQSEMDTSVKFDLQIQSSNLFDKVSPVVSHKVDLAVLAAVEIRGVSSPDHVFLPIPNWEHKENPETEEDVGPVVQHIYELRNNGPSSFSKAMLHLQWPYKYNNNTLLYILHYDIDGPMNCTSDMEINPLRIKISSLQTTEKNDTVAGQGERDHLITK
Chain of Integrin avb3 (P06756 891-1048 limits assumed): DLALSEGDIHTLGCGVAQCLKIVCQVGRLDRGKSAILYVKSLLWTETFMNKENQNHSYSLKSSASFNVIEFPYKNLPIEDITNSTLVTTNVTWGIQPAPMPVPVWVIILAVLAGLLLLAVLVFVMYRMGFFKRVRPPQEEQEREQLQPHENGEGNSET
Chain of Integrin avb3 (P05106 27-788): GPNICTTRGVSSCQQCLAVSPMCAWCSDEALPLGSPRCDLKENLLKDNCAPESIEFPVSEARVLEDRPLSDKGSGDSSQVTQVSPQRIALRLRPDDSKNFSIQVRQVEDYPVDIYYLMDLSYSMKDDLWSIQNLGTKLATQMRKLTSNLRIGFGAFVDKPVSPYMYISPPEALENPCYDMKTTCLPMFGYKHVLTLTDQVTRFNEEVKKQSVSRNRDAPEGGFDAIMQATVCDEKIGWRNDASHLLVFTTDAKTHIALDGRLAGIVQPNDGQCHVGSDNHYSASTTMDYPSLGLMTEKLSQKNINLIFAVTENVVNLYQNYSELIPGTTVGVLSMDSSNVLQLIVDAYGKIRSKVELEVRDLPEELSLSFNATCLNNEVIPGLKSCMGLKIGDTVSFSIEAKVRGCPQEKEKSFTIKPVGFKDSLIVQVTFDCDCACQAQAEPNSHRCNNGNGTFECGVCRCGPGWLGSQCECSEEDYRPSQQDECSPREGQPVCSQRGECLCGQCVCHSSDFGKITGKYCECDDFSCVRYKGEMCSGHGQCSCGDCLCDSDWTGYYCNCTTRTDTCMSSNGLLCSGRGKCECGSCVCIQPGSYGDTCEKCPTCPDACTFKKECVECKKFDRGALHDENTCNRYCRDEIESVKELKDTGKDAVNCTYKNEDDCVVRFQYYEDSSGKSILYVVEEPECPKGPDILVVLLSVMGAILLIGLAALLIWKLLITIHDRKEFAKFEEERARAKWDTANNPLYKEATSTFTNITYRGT

Take GD2: the adhesion to vitronectin result in assay [1] is listed as “limit the adhesion”. The “binding to integrin avb3” value in [2] is “binds”.

Consider GD3, for which the “adhesion of keratinocytes and keratinocyte-derived cells to fibronectin” value in assay [3] is “inhibit”. Also, the “phosphorylation of integrin-linked kinase” value in assay [4] is given as “inhibition of phosphorylation”. Also, the adhesion to vitronectin entry in assay [1] is reported as “limit the adhesion”. Moreover, the “interaction with keratinocyte a5b1” value in assay [5] is given as “direct interaction”. Further, the “binding to integrin avb3” value in [2] was “binds”. Besides, the “phosphorylation of FAK” value in assay [6] is given as “inhibition of phosphorylation”. In assay [7] (setting [19]), the “activity of MMP-2” value is reported as “no change” and the “expression of MMP-2” value is listed as “no change”. Besides, in [7] (setting [20]), the “activity of MMP-2” value is given as “inhibit” and the “expression of MMP-2” value is listed as “inhibit”. In assay [8], the “migration of keratinocytes and keratinocyte-derived cells on fibronectin” value was “inhibit”.

As to GM3, in assay [9] (setting [21]), the “expression of TIMP-1” value is “marked suppression”. Also, the “proliferation of skin cells” value in assay [10] (pharmacologic addition of ganglioside) is given as “inhibit the proliferation”. In addition, the “binding to the carbohydrate moieties of the epidermal growth factor receptor” value in assay [11] is listed as “direct binding”. For the same substance, the “phosphorylation of MAP kinase” value in assay [12] is on record as “downregulates”. In assay [13] (setting [21]), the “activity of MMP-9” value is “without affecting” and the “expression of MMP-9” value is “marked suppression”. The “phosphorylation of PI3 kinase” value in assay [14] is recorded as “downregulates”.

Take GT1b: in assay [9] (setting [21]), the “expression of TIMP-1” value is “marked suppression”. In assay [3], the “adhesion of keratinocytes and keratinocyte-derived cells to fibronectin” value is reported as “inhibit”. Further, the “phosphorylation of integrin-linked kinase” value in [4] is listed as “inhibition of phosphorylation”. Also, the “interaction with keratinocyte a5b1” value in assay [5] is reported as “direct interaction”. In assay [15], the “binding to integrin b1” value is “able to bind”. The “attachment of explant cultures” value in [16] is “clear inhibition of attachment”. In assay [13] (setting [21]), the “activity of MMP-9” value was “without affecting” and the “expression of MMP-9” value is listed as “marked suppression”. Moreover, the b1 phosphorylation entry in [17] is “inhibits”. In addition, the serine/threonine phosphorylation entry in assay [17] (on binding of b1) is reported as “inhibits”. The “phosphorylation of FAK” value in assay [6] is listed as “inhibition of phosphorylation”. In assay [7] (setting [19]), the “activity of MMP-2” value is given as “no change” and the “expression of MMP-2” value is “no change”. Moreover, in assay [7] (setting [20]), the “activity of MMP-2” value is “inhibit” and the “expression of MMP-2” value was “inhibit”. Besides, in [8], the “migration of keratinocytes and keratinocyte-derived cells on fibronectin” value is reported as “inhibit”.

Take PIP3 [reference compound]: the TIMP-2 expression result in assay [18] was “only slightly increase”. Also, in assay [7] (setting [20]), the “activity of MMP-2” value was “increased” and the “expression of MMP-2” value is on record as “increased”.

As to concanavalin A [reference compound], the TIMP-2 expression result in [18] is “only slightly increase”. For the same substance, in assay [7] (setting [20]), the “activity of MMP-2” value is listed as “increased” and the “expression of MMP-2” value is “increased”.

In the case of “epidermal growth factor [reference compound]”, the “expression of TIMP-1” value in assay [9] (SCC12 cells) is on record as “does not affect”. Further, the “proliferation of skin cells” value in assay [10] (added to sialidase-transfected (ganglioside-depleted) cells in culture) is “further accentuated”. Besides, in assay [13] (SCC12 cells), the “activity of MMP-9” value is recorded as “increases its activity” and the “expression of MMP-9” value is given as “further increased”.
